This note sets out measurements from ChEMBL document CHEMBL1134261, “Synthesis of anticonvulsive AMPA antagonists: 4-oxo-10-substituted-imidaz” (Bioorg Med Chem Lett, 2001).

Molecules are shown by their SMILES.

A word on the ED50: it is the midpoint of the dose-response relation. What is called IC50 is the concentration at which inhibition is half-maximal. A high value points to lower potency.

Assay [1] has as its system Mus musculus. The assay is described as follows: In vivo effective dose required to protect 6 male CD1 mice against tonic convulsions following ip administration for a pretreatment time of 30 min. It counts as functional.
For assay [2], the species on record is Xenopus sp. Put plainly: Inhibition of currents generated by 50 uM kainate in Xenopus oocytes injected with rat brain mRNA. It counts as functional, organism-based, frog.
The target of assay [3] is Glutamate receptor ionotropic, AMPA (Rattus norvegicus, UniProt P19490+P19491+P19492+P19493). Put plainly: Displacement of [3H]AMPA from Ionotropic glutamate receptor AMPA of rat cortical membranes. It counts as cell membranes, Membrane.
Assay [4] deals with Glutamate NMDA receptor. The assay is described as follows: Displacement of [3H]DCKA from glycine NMDA receptor of rat cortical membranes. It counts as cell membranes, Membrane. A general note: In a radioligand displacement assay an active substance lowers the binding of a labelled ligand.
For assay [5], the system named is Mus musculus. Put plainly: In vivo effective dose required to protect 6 male CD1 mice against tonic convulsions following iv administration for a pretreatment time of 60 min. It counts as functional.
The subject of assay [6] is Mus musculus. The assay is described as follows: In vivo effective dose required to protect 6 male CD1 mice against tonic convulsions following iv administration for a pretreatment time of 5 min. It counts as functional.
The test system of assay [7] is Mus musculus. The assay is described as follows: In vivo effective dose required to protect 6 male CD1 mice against tonic convulsions following iv administration for a pretreatment time of 30 min. It counts as functional.

For the compound `CC1(CCCCC(=O)O)c2ccccc2-c2nc(O)c3nc(C(=O)O)cn3c21` (configuration not stated), the ED50 in assay [1] worked out at 10 mg/kg; in assay [5], 15 mg/kg; in assay [6], 9.5 mg/kg. The IC50 in assay [2] stood at 22 nM; in assay [3], 242 nM; in assay [4] it was 134 nM.

In the case of `O=C(O)c1cn2c3c(nc(O)c2n1)-c1ccccc1C3=O`, the figures for the IC50 in assay [2], in assay [3] and in assay [4] were 320 nM, 580 nM and 422 nM, respectively.

For the compound `O=C(O)c1cn2c3c(nc(O)c2n1)-c1ccccc1C3N1CC=CC1=O` (configuration not stated), the ED50 in assay [1] worked out at 20 mg/kg; in assay [6] it was 7.7 mg/kg. Also, the IC50 is 23 nM in assay [3] and 184 nM in assay [4].

`O=C(Nc1ccccc1)NC1c2ccccc2-c2nc(O)c3nc(C(=O)O)cn3c21` (configuration not stated): in assay [1], the ED50 was determined as 80 mg/kg. The IC50 in assay [2] turned out to be 30 nM; in assay [3], 159 nM; in assay [4], 18 nM.

For `O=C(O)c1cn2c3c(nc(O)c2n1)-c1ccccc1C3`, the midpoint of inhibition in assay [2], the IC50, lay at 29 nM.

As for `O=C(O)c1cn2c3c(nc(O)c2n1)-c1ccccc1C3n1cccc1` (configuration not stated), the ED50 came to 26 mg/kg in assay [1], 15 mg/kg in assay [7], 17 mg/kg in assay [5] and 10 mg/kg in assay [6]. The IC50 in assay [2] worked out at 60 nM; in assay [3], 55 nM; in assay [4], 32 nM.

Regarding `NC1c2ccccc2-c2nc(O)c3nc(C(=O)O)cn3c21` (configuration not stated), the ED50 was 19 mg/kg in assay [1], 25 mg/kg in assay [7], > 40 mg/kg in assay [5] and 7 mg/kg in assay [6]. For the same compound, the IC50 in assay [2] was 130 nM; in assay [3] it was 93 nM; in assay [4], 158 nM.

The compound `Oc1nc2c(n3ccnc13)Cc1ccccc1-2` had an IC50 in assay [2] of 1800 nM.

As to `O=Nc1c2n3cc(C(=O)O)[nH]c3c(O)nc-2c2ccccc12`, the ED50 in assay [1] is > 80 mg/kg. In addition, the IC50 in assay [2] was found to be 130 nM; in assay [3], 167 nM; in assay [4], 593 nM.

`O=C(O)CCC(=O)NC1c2ccccc2-c2nc(O)c3nc(C(=O)O)cn3c21` (configuration not stated): the ED50 in assay [1] is 2.5 mg/kg; in assay [7], 1.7 mg/kg; in assay [5], 3 mg/kg; in assay [6] it was 1.7 mg/kg. Moreover, the IC50 came out at 6 nM in assay [2], 35 nM in assay [3] and 230 nM in assay [4].

With `O=C(O)CCCO/N=C1\c2ccccc2-c2nc(O)c3nc(C(=O)O)cn3c21`, in assay [1], the median effective dose (ED50) was > 80 mg/kg. In addition, the IC50 in assay [2] worked out at 5 nM; in assay [3], 44 nM; in assay [4], 1400 nM.

In the case of `O=c1[nH]c2cc(C(F)(F)F)c(N3CCOCC3)cc2n(CP(=O)(O)O)c1=O` [FANAPANEL], the ED50 in assay [1] and in assay [6] was 36 mg/kg throughout. Further, the figures for the IC50 in assay [2] and in assay [4] were 31 nM and > 10000 nM, respectively.

`O=C(O)[C@@H]1C[C@H]2C[C@@H](CCc3nn[nH]n3)CC[C@H]2CN1` [TEZAMPANEL ANHYDROUS] displayed an IC50 in assay [2] of 233 nM.

As for `O=c1[nH]c2cc(-n3ccnc3)c([N+](=O)[O-])cc2[nH]c1=O` [YM-90K], in assay [2], the IC50 came out at 260 nM. The ED50 came to 24 mg/kg in assay [7], 40 mg/kg in assay [5] and 6.2 mg/kg in assay [6].
